Measurements published in patent US7192607B2, “Formulations for the prevention or the treatment of diseases affecting mucosae or skin, or for pregnancy prevention, and an applicator for the delivery of topical formulations into mucosal cavities” (Infectio Recherche Inc, priority 2002, dated 2007).

Columns and labels:
HSV-2 (strain 333) = test: Murine intravaginal infection model, gel formulations applied prior to infection; assay type: in vivo, Balb/c mice; conditions: 2.5% SLS alone intravaginally 5 min prior to infection
Experimental: The efficacy of gel formulations to prevent the genital transmission of HSV-2 has been evaluated in a murine intravaginal infection model. In brief, female Balb/c mice aged 4 weeks were used for this study. To increase susceptibility of mice to herpes, 2.5 mg of progesterone (Depo-Provera) was administered subcutaneously to each mouse 7 days prior to and one day prior to inoculation with HSV-2. Anesthetized mice were inoculated with 5 μl of 2.4×10^7 pfu/ml of HSV-2 (strain 333) after swabbing the vagina with a calcium alginate thin tipped swab. To determine the efficacy of the gel formulations to block herpes infection, 15 μl of the gel was delivered with a pipette tip into the vagina a few minutes prior to the inoculation. The pipette tip was moved in and out four times to simulate stirring action of sexual intercourse while being cautious not to cause any bleeding.

HSV-2 (333) = test: Infectivity of HSV-2 (333) pretreated with SLS on Vero cells (PFU); assay type: cell-based, Herpes simplex virus type-2
Experimental: (§1) The effect of pretreating different strains of herpes viruses with SLS or DS on their viral infectivities to susceptible cells has been evaluated. In brief, cells were seeded in 24 well-plates (Costar, Montreal, QC, Canada). Prior to infection, the virus was either suspended in culture medium or phosphate buffered saline (PBS), or incubated with different concentrations of SLS in PBS for 1 h at 37° C. At confluency, cells were incubated with viral suspensions by centrifuging the plates (750× g for 45 min at 20° C.) to allow virus adsorption. Virus was removed and cell sheets were then overlaid with 0.5 ml of 0.6% agarose Seaplaque (Marine Colloids, Rockland, Md.) prepared in appropriate culture medium. The plates were incubated for 2 days at 37° C. Cells were then fixed with 10% formaldehyde in PBS for 20 min, washed with deionized water and stained with 0.05% methylene blue. Viral infectivity was evaluated via the determination of Plaque Forming Units (PFU).

HSV-2 (22) = test: Infectivity of HSV-2 (22) pretreated with SLS on Vero cells (PFU); assay type: cell-based, Herpes simplex virus type-2
Experimental: as §1

HIV-1 = conditions: Howett et al., 1999; cited from earlier work
Vero cells = test: Viability of Vero cells exposed to SLS or DS (MTS test); conditions: Vero cells exposed 1 h at 37° C. to concentrations as in FIG. 1 and Table 1; data not shown
[1] = tested on: various HSV-1 and HSV-2 strains; test: Infectivity of HSV strains pretreated with SLS on Vero cells, text summary across strains; assay type: cell-based, Herpes simplex virus; conditions: pretreatment of the viruses with 50 μM SLS
Experimental: as §1
HSV-1 (strain F) infectivity was reduced to 21% when viral particles were pretreated with 25 μM SLS. The infectivities of all HSV-2 strains were between 50 to 70% following preincubation with 25 μM SLS. A complete loss of the infectivity of all strains tested were obtained following pretreatment of the viruses with 50 μM SLS.

[2] = tested on: glycoprotein D gene of HSV-1 (strain F); test: Quantification of HSV glycoprotein D gene in Vero cells infected with pretreated virus (hybridization, densitometry); assay type: cell-based, Herpes simplex virus type-1; conditions: 48 h infection
Experimental: The quantification of the glycoprotein D gene of HSV-1 (strain F) pretreated with SLS was also evaluated in Vero cells in order to determine the presence of viral DNA in the infected cells. In brief, HSV-1 (strain F) was pretreated with varying SLS concentrations (12.5, 25, 50, 75 and 100 μM) in EMEM +2% FBS for 1 h at 37° C. Vero cells (80–90% confluent) were infected with the virus (100 PFU/ml in 20 ml) for 48 h at 37° C. in a 5% CO2 atmosphere. The culture medium was removed and cell sheet was washed twice with 1× HBSS. Cells were scrapped off from the dishes and resuspended in EMEM +2% FBS. Total DNA was extracted using a standard phenol/chloroform procedure. Quantitation of total DNA was achieved using the Burton procedure. The probe used for this study corresponds to a part of glycoprotein D of HSV-2 (strain 333), generated by PCR using the following primers: • P1 (5′-[…]-3′) and • P2 (5′-[…]-3′) and was [^32P]-labeled by random priming. Hybridization was performed at 65° C. in 0.25 M Na2HPO4 (pH 6.8 with orthophosphoric acid) and 7% SDS. Washes were done in 40 mM Na2HPO4 (pH 6.8 with orthophosphoric acid) and 1% SDS for 20 min at 65° C. followed by 20 min at 25° C.
Following a 48 h incubation, cells were collected and total DNA was extracted. […] Quantitative measurements of HSV-1 DNA levels obtained by scanning densitometry of the autoradiogram were similar (Panel B).

HSV-1 (strain F) = test: Electron microscopy of Vero cells infected with HSV-1 (strain F) pretreated with SLS; assay type: cell-based, Herpes simplex virus type-1
Experimental: The appearance of HSV-1 (strain F) pretreated with varying SLS concentrations (50, 75 and 100 μM) for 1 h at 37° C. has been evaluated in Vero cells using electron microscopy. In brief, cells (80–90% confluent) were infected with the virus (approximately 70 PFU/ml in 14 ml) for 48 h at 37° C. in a 5% CO2 atmosphere. Cells were scrapped off from the dishes and resuspended in culture medium. Cells were centrifuged (515× g for 10 min at 4° C.) and the supernatant was decanted and cells were resuspended in approximately 500 μl medium. Cells were transferred in an eppendorf tube and centrifuged at (10,000× g for 5 min at 4° C.). The pellet was resuspended in approximately 200 μl of 20% bovine serum albumin (BSA). Few drops of 25% glutaraldehyde were added to the mixture and samples were immediately put in an ice bath to allow BSA polymerization. The pellet was then cut in 1 mm^3 samples which were then fixed in 2% glutaraldehyde in PBS for 1 h, 1% OsO4 in PBS for 1 h and then with 0.1% tannic acid in PBS for 30 min. Samples were rinsed 3 times in PBS for 5 min between each step. Samples were stained with 2% uranyl acetate in 10% ethanol for 30 min. Samples were dehydrated and embedded in Epon following routine procedures. Sections (approximately 75 nm thickness) were mounted on copper grid (200 mesh). […]

[3] = virus pretreated with 6.25 μM SLS for 1 hour at 37° C.
[4] = virus pretreated with 12.5 μM SLS for 1 hour at 37° C.
[5] = virus pretreated with 25 μM SLS for 1 hour at 37° C.
[6] = virus pretreated with 50 μM SLS for 1 hour at 37° C.
[7] = virus pretreated with 100 μM SLS for 1 h at 37° C.

Q: For CCCCCCCCCCCCOS(=O)(=O)[O-].[Na+] [SLS, Sodium lauryl sulfate], which “mice that survived the infection” value (HSV-2 (strain 333)) is on record?
A: The value was “all”.

Q: And the signs of illness (HSV-2 (strain 333); up to 16 days post-infection)?
A: Its signs of illness is “did not demonstrate any sign of illness”.

Q: What about the “PFU (% of control) for HSV-2 (333)” value (HSV-2 (333); [3]) of the same molecule?
A: Its value is 102.9 ± 23.5 % of control.

Q: And the “PFU (% of control) for HSV-2 (333)” value (HSV-2 (333); [4])?
A: Its value is 115.4 ± 17.0 % of control.

Q: What about the “PFU (% of control) for HSV-2 (333)” value (HSV-2 (333); [5]) of the same molecule?
A: The value was 72.9 ± 9.1 % of control.

Q: What about the “PFU (% of control) for HSV-2 (333)” value (HSV-2 (333); [6]) of the same molecule?
A: Its value is 0 % of control.

Q: And the “PFU (% of control) for HSV-2 (22)” value (HSV-2 (22); [3])?
A: Its value is 128.0 ± 18.5 % of control.

Q: What about the “PFU (% of control) for HSV-2 (22)” value (HSV-2 (22); [4]) of the same molecule?
A: Its value is 103.4 ± 14.9 % of control.

Q: What about the “PFU (% of control) for HSV-2 (22)” value (HSV-2 (22); [5]) of the same molecule?
A: Its value is 63.8 ± 11.9 % of control.

Q: What about the “PFU (% of control) for HSV-2 (22)” value (HSV-2 (22); [6]) of the same molecule?
A: Its value is 0 % of control.

Q: And the “inactivation of HIV-1” value (HIV-1)?
A: Its value is “potent inactivator”.

Q: And the “cytotoxicity (viability, MTS test)” value (Vero cells)?
A: Its value is “No signs of cytotoxicity”.

Q: And the “infectivity of all strains tested” value [1]?
A: The value was “complete loss”.

Q: What about the “HSV-1 DNA levels (glycoprotein D gene)” value ([2]; virus pretreated with 75 μM SLS for 1 h at 37° C.) of the same molecule?
A: The value was 65.1 % of control values.

Q: What about the “HSV-1 DNA levels (glycoprotein D gene)” value [2, 7] of the same molecule?
A: Its value is 34.9 % of control values.

Q: What about the “expression of the glycoprotein D gene compared to control” value ([2]; virus pretreated with 12.5, 25 and 50 μM SLS for 1 h at 37° C.) of the same molecule?
A: The value was “No major modification”.

Q: And the “cells with empty capsids in the nuclei (electron microscopy)” value (HSV-1 (strain F); [7])?
A: The value was “only a few cells with empty capsids in the nuclei could be detected”.

Q: What about the “appearance of viral particles in infected Vero cells (electron microscopy)” value (HSV-1 (strain F); virus pretreated with 50, 75 and 100 μM SLS for 1 h at 37° C.) of the same molecule?
A: Its value is “No mature nucleocapsid could be observed”.
